Assay: Relationship between pH and decrease of radiochemical purity (storage at 25° C., TLC analysis)
Format: physicochemical
Conditions: pH value not more than 5.9, no pharmaceutical additives or buffers that prevent radiolysis
Description: Radioactivity of the obtained stock solution of anti-[^18F]-FACBC was measured, and then the stock solution was diluted with a physiological saline solution so as to have a radioactive concentration of about 510 MBq/mL at the time when experiment was initiated (0 hour in Table 9). 2.23 mL of this solution was aliquoted in a vial of 5 mL in volume, and a predetermined amount of a predetermined solution indicated in Table 8 was added thereto, to obtain a sample solution. The radioactive concentration of the sample solutions at the end of preparation was […].
The sample solution was stored in an electric thermostatic chamber adjusted to 25° C., and was then subjected to TLC analysis which was performed on the following conditions at the time of initiation of the experiment (0 hour) and 8.5 hours after the initiation of the experiment. Values of radiochemical purity were calculated in accordance with the following equation (1). Measurement of the radiochemical purity was repeated three times for each sample solution.
Mobile phase: acetonitrile/water/100% acetic acid=4/1/1
TLC plate: Silica Gel 60F254 (trade name, thickness: 0.25 mm, manufactured by Merck & Co., Inc.)
TLC scanner: Rita Star (manufactured by Raytest)
Number of analysis: Three times

SMILES | stability against radiolysis
NC1(C(=O)O)CC([18F])C1 (centres unmarked) [[^18F]FACBC, 3-[^18F]fluoro-1-aminocyclobutanecarboxylic acid] | stability thereof is maintained

Assay: not given
Conditions: Japanese Pharmaceutical Excipients Directory 2000; cited from earlier work

SMILES | maximum dose in case of intravenous administration [g]
O=C[C@H](O)[C@@H](O)[C@H](O)[C@H](O)CO [glucose] | 8
OC[C@@H](O)[C@@H](O)[C@H](O)[C@H](O)CO [mannitol] | 1.2
OC[C@H]1O[C@@H](O[C@H]2[C@H](O)[C@@H](O)C(O)O[C@@H]2CO)[C@H](O)[C@@H](O)[C@H]1O (some centres unmarked) [lactose] | 1.25
O=C(CO)[C@@H](O)[C@H](O)[C@H](O)CO [fructose] | 0.9
OC[C@@H](O)[C@H](O)[C@@H](O)CO [xylitol] | 0.2
OC[C@H]1O[C@H](O[C@H]2[C@H](O)[C@@H](O)[C@H](O)O[C@@H]2CO)[C@H](O)[C@@H](O)[C@@H]1O [martose] | 10
OC[C@@H](O)[C@@H](O)[C@H](O)[C@@H](O)CO [sorbitol] | 1.5

Source: patent publication US8343459B2, “Method for production of radiation diagnostic imaging agent” (Nihon Medi-Physics Co., Ltd., priority 2007, dated 2013)
